In general, Ki refers to the equilibrium dissociation constant of an inhibitor or competing ligand from its target.

The source of these data is publication PMC10450149, “Antennal transcriptome analysis of odorant-binding proteins and characterization of GOBP2 in the variegated cutworm Peridroma saucia” (Frontiers in Physiology, 2023).

Values joined by “and” are separate entries in the source; they are usually repeats but may differ in a detail not shown here. Equal values may be shown once.

The target of test [1] is recombinant PsauGOBP2. Kind of test: Competitive fluorescence binding assay: displacement of 1-NPN from recombinant PsauGOBP2. Also noted: species or system Peridroma saucia. To be noted: means ± SE, n = 3; for IC50: PsauGOBP2 and 1-NPN, IC50 > 30 μM considered no binding affinity, read-out: IC50 (concentration of ligand halving the initial fluorescence value of 1-NPN); for Ki: Ki = [IC50]/(1 + [1-NPN]/K1-NPN), read-out: Ki (calculated dissociation constant). As to the method: (§1) For the expression of recombinant PsauGOBP2, pET-30b containing the sequence encoding mature PsauGOBP2 was used to transform BL21 E. coli cells. Protein expression was induced by the addition of IPTG (final concentration 0.4 mM) when the OD600 value of cell culture reached about 0.8. Cells cultured for further 2–4 h at 37°C were harvested by centrifugation. PsauGOBP2 was present as inclusion bodies. 10 mL of 8 M urea and 1 mM DTT in Tris buffer (50 mM, pH 7.4) were then used to solubilise the inclusion body pellet (from 1 L of culture). The dissolved protein was dialyzed against 1 L of Tris buffer (50 mM, pH 7.4). The recombinant protein was purified on the anion exchange resins QFF, following standard protocols previously adopted for other moth OBPs ([Sun et al., 2012]; [Sun et al., 2021]).
Binding affinities of odorants to PsauGOBP2 were measured by competitive binding assays. A panel of 28 compounds (competitors) including the P. saucia female sex pheromone components Z11-16: Ac and Z9-14: Ac and 26 host plant volatiles were used in the assay. The CAS number, source, and purity of these compounds were listed in Supplementary Table S3. A solution of PsauGOBP2 and 1-NPN, both at the concentration of […], was titrated with 1 mM of each competitor (dissolved in methanol) at a final concentration of 10 µM (sex pheromones) or 20 µM (host plant volatiles). The dissociation constants (Ki) of competitors to PsauGOBP2 were calculated using the equation: Ki = [IC50]/(1 + [1-NPN]/K1-NPN), where [IC50] is the concentration of the competitor halving (50%) the initial fluorescence value (100%), [1-NPN] is the free concentration of 1-NPN, and K1-NPN is the dissociation constant of the protein-1-NPN complex.

In another test the target is PsauGOBP1. Also noted: method as in Sun et al., 2021. Particulars: binding to PsauGOBP1; ref Sun et al., 2021; cited from earlier work.
The target of test [2] is recombinant PsauGOBP2. Kind of test: Fluorescence binding assay: titration of recombinant PsauGOBP2 with the fluorescent probe 1-NPN. Details: species or system Peridroma saucia. Particulars: 2 mM protein in 50 mM Tris-HCl pH 7.4, titrated with 1-NPN to 20 µM; excitation 337 nm; means +SE, n = 3; single binding site; read-out: K1-NPN (dissociation constant of 1-NPN to PsauGOBP2). The procedure: as §1
The fluorescence binding assays were conducted on a Hitachi F-2710 with a 1 cm light path quartz cuvette. To measure the affinity of the fluorescent probe 1-NPN (N-phenyl-1-naphthylamine) to PsauGOBP2, a […] solution of the protein in 50 mM Tris-HCl, pH 7.4, was titrated with aliquots of 1 mM 1-NPN in methanol to a final concentration of 20 µM. The probe was excited at 337 nm, and emission spectra were recorded between 380 and 460 nm. The dissociation constant of 1-NPN (K1-NPN) to PsauGOBP2 was obtained by processing the data with GraphPad Prism 6.0.

Setting [3] is: remaining 1-NPN fluorescence at Max Conc 20 (20 µM, host plant volatiles).
[4] abbreviates: remaining 1-NPN fluorescence at Max Conc 10 (10 µM, sex pheromones).

Take `CC(C)=CCCC(C)=CC=O` (mixture of isomers) [Citral]: the IC50 on recombinant PsauGOBP2 [1] was more than 30 µM. In addition, the “Fluorescence at max (%)” value in the test with recombinant PsauGOBP2 [1] (setting [3]) is recorded as 76 ± 5%. The inhibition constant (Ki) on PsauGOBP1 is 5.6 µM.
Turning to `c1ccc(Nc2cccc3ccccc23)cc1` [1-NPN, N-phenyl-1-naphthylamine], the Kd on recombinant PsauGOBP2 [2] worked out at 3.2 ± 0.19 µM.
Take `CCC/C=C/CO` [(E)-2-Hexen-1-ol, (E)-2-hexen-1-ol]: at recombinant PsauGOBP2 [1], the IC50 is more than 30 µM. For the same molecule, the “Fluorescence at max (%)” value in the test with recombinant PsauGOBP2 [1] (setting [3]) amounted to 69 ± 7%.
Turning to `CCC/C=C/C=O` [(E)-2-Hexenal, (E)-2-hexenal], the IC50 at recombinant PsauGOBP2 [1] is more than 30 µM. In the test with recombinant PsauGOBP2 [1] (setting [3]), the “Fluorescence at max (%)” value is reported as 77 ± 3%.
Regarding `CCC/C=C/COC(C)=O` [(E)-2-Hexenyl acetate, (E)-2-hexenyl acetate], on recombinant PsauGOBP2 [1], the IC50 was more than 30 µM. The “Fluorescence at max (%)” value in the test with recombinant PsauGOBP2 [1] (setting [3]) came out at 69 ± 3%.
As for `C=C1CC/C=C(\C)CC[C@@H]2[C@@H]1CC2(C)C` [(E)-Caryophyllene, (E)-caryophyllene], the IC50 at recombinant PsauGOBP2 [1] was more than 30 µM. For the same molecule, the “Fluorescence at max (%)” value with recombinant PsauGOBP2 [1] (setting [3]) stood at 90 ± 3%.
For `C=CC(=C)CC/C=C(\C)CCC=C(C)C` [(E)-β-farnesene], the IC50 on recombinant PsauGOBP2 [1] was more than 30 µM. Further, the “Fluorescence at max (%)” value with recombinant PsauGOBP2 [1] (setting [3]) is recorded as 75 ± 7%.
With `CC/C=C\CCO` [(Z)-3-Hexen-1-ol, (Z)-3-hexen-1-ol], the IC50 on recombinant PsauGOBP2 [1] was more than 30 µM. Also, in the test with recombinant PsauGOBP2 [1] (setting [3]), the “Fluorescence at max (%)” value is listed as 72 ± 3%. In addition, at PsauGOBP1, the Ki was 8.5 µM.
For the molecule `CC/C=C\CCOC(C)=O` [(Z)-3-Hexenyl acetate, (Z)-3-hexenyl acetate], the IC50 on recombinant PsauGOBP2 [1] is more than 30 µM. In the test on recombinant PsauGOBP2 [1] (setting [3]), the “Fluorescence at max (%)” value was 86 ± 2%. The inhibition constant Ki on PsauGOBP1 is 4 µM.
Consider `CC/C=C\CC1=C(C)CCC1=O` [(Z)-jasmone], for which the IC50 on recombinant PsauGOBP2 [1] is more than 30 µM. The “Fluorescence at max (%)” value in the test with recombinant PsauGOBP2 [1] (setting [3]) came out at 75 ± 3%.
Consider `O=Cc1ccccc1` [Benzaldehyde], for which the IC50 on recombinant PsauGOBP2 [1] was more than 30 µM. Besides, the “Fluorescence at max (%)” value in the test with recombinant PsauGOBP2 [1] (setting [3]) worked out at 74 ± 3%. In addition, the Ki on PsauGOBP1 is 9.4 µM.
As to `C=C(C)[C@H]1CC=C(C)CC1` [D-Limonene], the IC50 on recombinant PsauGOBP2 [1] was more than 30 µM. For the same molecule, the “Fluorescence at max (%)” value with recombinant PsauGOBP2 [1] (setting [3]) is 85 ± 5%.
On the same counts, the results for `CCCCCCCCCC=O` [Decanal] are more than 30 µM and 73 ± 7%.
In the case of `CCCCCCCCCCCCO` [Dodecanol], on recombinant PsauGOBP2 [1], the Ki is 13 ± 0.4 µM and the IC50 turned out to be 19.5 ± 0.6 µM. The “Fluorescence at max (%)” value with recombinant PsauGOBP2 [1] (setting [3]) was 49 ± 3%.
Regarding `CC(C)=CCC/C(C)=C/CC/C(C)=C/CO` [Farnesol], on recombinant PsauGOBP2 [1], the IC50 is more than 30 µM. For the same molecule, the “Fluorescence at max (%)” value in the test with recombinant PsauGOBP2 [1] (setting [3]) worked out at 100 ± 3%. In addition, the Ki on PsauGOBP1 was 6.4 µM.
With `CCCCCCCO` [Heptanol], the IC50 at recombinant PsauGOBP2 [1] was more than 30 µM. In addition, the “Fluorescence at max (%)” value in the test with recombinant PsauGOBP2 [1] (setting [3]) worked out at 80 ± 2%.
The like results for `c1ccc2[nH]ccc2c1` [Indole] were, in that order, more than 30 µM and 100 ± 8%.
Take `CC/C=C\C[C@H]1C(=O)CC[C@@H]1CC(=O)O` [Jasmonic acid]: the IC50 at recombinant PsauGOBP2 [1] is more than 30 µM. Further, in the test on recombinant PsauGOBP2 [1] (setting [3]), the “Fluorescence at max (%)” value is on record as 73 ± 5%.
With `C=CC(C)(O)CCC=C(C)C` (centres unmarked) [Linalool], on recombinant PsauGOBP2 [1], the IC50 was more than 30 µM. For the same molecule, the “Fluorescence at max (%)” value with recombinant PsauGOBP2 [1] (setting [3]) came to 74 ± 6%.
On the same counts, the results for `CC/C=C\CC1C(=O)CCC1CC(=O)OC` (centres unmarked) [Methyl jasmonate] are more than 30 µM and 70 ± 7%.
With `COC(=O)c1ccccc1O` [Methyl salicylate], the IC50 at recombinant PsauGOBP2 [1] was more than 30 µM. In the test on recombinant PsauGOBP2 [1] (setting [3]), the “Fluorescence at max (%)” value is 79 ± 2%.
In the case of `CCCCCCCCC=O` [Nonanal], the IC50 on recombinant PsauGOBP2 [1] is more than 30 µM. Further, the “Fluorescence at max (%)” value in the test with recombinant PsauGOBP2 [1] (setting [3]) is given as 85 ± 2%. At PsauGOBP1, the inhibition constant Ki was 6.8 µM.
As to `CCCCCCCC=O` [Octanal], the IC50 on recombinant PsauGOBP2 [1] is more than 30 µM. Further, the “Fluorescence at max (%)” value in the test with recombinant PsauGOBP2 [1] (setting [3]) came to 75 ± 2%.
Take `CC(=O)OCCc1ccccc1` [Phenylethyl acetate]: at recombinant PsauGOBP2 [1], the inhibition constant Ki was 6.3 ± 0.3 µM and the IC50 was 10.5 ± 0.5 µM. For the same molecule, in the test with recombinant PsauGOBP2 [1] (setting [3]), the “Fluorescence at max (%)” value was determined as 39 ± 3%.
As to `CCCC/C=C\CCCCCCCCOC(C)=O` [Z9-14: Ac], at recombinant PsauGOBP2 [1], the Ki was 4.9 µM and < 5 µM; the IC50 turned out to be 7.5 ± 0.9 µM. Further, the “Fluorescence at max (%)” value in the test with recombinant PsauGOBP2 [1] (setting [4]) turned out to be 45 ± 3%.
Consider `CCCC/C=C\CCCCCCCCCCOC(C)=O` [Z11-16: Ac], for which, at recombinant PsauGOBP2 [1], the Ki was 4.2 µM and < 5 µM; the IC50 was 6.5 ± 1.2 µM. Besides, in the test with recombinant PsauGOBP2 [1] (setting [4]), the “Fluorescence at max (%)” value is 41 ± 4%.
Take `C=CC(=C)CCC=C(C)C` [β-Myrcene, β-myrcene]: on recombinant PsauGOBP2 [1], the Ki was 8 ± 0.3 µM and the IC50 was 12 ± 0.5 µM. Besides, in the test with recombinant PsauGOBP2 [1] (setting [3]), the “Fluorescence at max (%)” value amounted to 45 ± 1.5%.
As to `C=C/C(C)=C/CC=C(C)C` [β-Ocimene, β-ocimene], the IC50 on recombinant PsauGOBP2 [1] is more than 30 µM. The “Fluorescence at max (%)” value in the test on recombinant PsauGOBP2 [1] (setting [3]) worked out at 90 ± 4%.
The like results for `C=C1CCC2CC1C2(C)C` (stereo not drawn) [β-Pinene, β-pinene] were, in that order, more than 30 µM and 79 ± 9%.
